Results as given in patent publication US20230383129A1, “ANTIFOULING COMPOUNDS” (I-Tech AB, priority 2020, published 2023).

Assays:
[1] = Release of I from monomers into artificial seawater, LC-MS (Setup 2); format: physicochemical; settings: for Concentration of I released: artificial seawater 3% NaCl pH 8.0, ambient temperature; for Concentration of I (near constant over the study): artificial seawater, days 10-25
Description: The stability of M1 and M4 was evaluated via quantification of the release of I into artificial seawater (3% NaCl, pH 8.0). For the experiments, compound M1 (0.023 g) was suspended in 5 mL artificial seawater, while M4 (0.044 g) were suspended in 10 mL artificial seawater. The solutions were stirred (300 rpm) at ambient temperatures and samples were collected at 10, 15, 20 and 25 days. The samples were stored in freezer 2-2.5 months prior to LC-MS analysis.
Samples from the release studies were analyzed using LC-MS. The LC-MS system was composed of an Acquity I-class UPLC with a Waters Xevo G2-S Qtof. The chromatographic separation was obtained on a C18 column with gradient elution (Eluent A, 0.1% NH4 in MQ-water and Eluent B, 100% acetonitrile). The samples (from freezer) were extracted with hexane and the organic extracts were analyzed by LC-MS. Three external calibration curves for I, M1 and M4 were prepared the same way as the samples and used for quantification.

[2] = Stability/hydrolysis of monomers in ethanol and PBS buffer followed by TLC (Setup 1); format: physicochemical; settings: after two weeks
Description: The stability of the carbamate-(M3), urea-(M4) and sulfonylderivative of medetomidine (M2 and M0) were studied in ethanol and phosphate-buffered saline (PBS) buffer. Thin-layer chromatography (TLC) was used to follow the decomposition of the derivatives to free medetomidine. It took approximately two weeks until most of the derivatives stored at room temperature to decompose. If the storage temperature was +6° C. no decomposition was observed.
Nine vials were prepared. Vial 1 contained reference compound medetomidine dissolved in ethanol (1 ml). Substance M2 (25 mg) was added to vial 2 and 3. Substance M3 (25 mg) was added to vial 4 and 5. Substance M4 (25 mg) was added to vial 6 and 7 and substance M0 was added to vial 8 and 9. The solid material in vials 2 to 9 were dissolved in ethanol (1 ml) and PBS buffer pH 7.4 (1 ml) to mimic sea water containing different salts and having a pH slightly basic. Ethanol was chosen as solvent to increase the solubility of the substances. During the study vial 1, 3, 5, 7 and 9 were stored at room temperature, whereas vial 2, 4, 6 and 8 were stored in a refrigerator at +6° C. Stability of the compounds was studied after 0, 1, 2, 5, 6, 9, 13 and 15 days using TLC and dichloromethane—methanol (95-5) as eluent.

barnacle cyprid larva = settings: barnacles; cited from earlier work
[3] = ethanol/PBS buffer pH 7.4, refrigerator +6° C.
[4] = ethanol/PBS buffer pH 7.4, room temperature

| Compound | Concentration of I released ([1]; incubation 10 days) | Concentration of I released ([1]; incubation 15 days) | Concentration of I released ([1]; incubation 20 days) | Concentration of I released ([1]; incubation 25 days) | Concentration of I (near constant over the study) [1] | decomposition to free medetomidine (TLC) [2, 3] | decomposition to free medetomidine (TLC) [2, 4] | concentration impeding larval settlement (barnacle cyprid larva) |
| --- | --- | --- | --- | --- | --- | --- | --- | --- |
| C=C(C)C(=O)n1cnc(C(C)c2cccc(C)c2C)c1 (stereo not drawn) [Compound M1, 1-{4-[1-(2,3-dimethylphenyl)ethyl]-1H-imidazol-1-yl}-2-methylprop-2-en-1-one] | 9330.0 ng/mL | 9905.8 ng/mL | 9748.8 ng/mL | 9820.4 ng/mL | ~9000 ng/mL | – | – | – |
| C=CCS(=O)(=O)n1cnc(C(C)c2cccc(C)c2C)c1 (stereo not drawn) [Compound M2, 4-[1-(2,3-dimethylphenyl)ethyl]-1-(prop-2-ene-1-sulfonyl)-1H-imidazole] | – | – | – | – | – | mixture of medetomidine and the starting material | only medetomidine | – |
| Cc1cccc(C(C)c2c[nH]cn2)c1C (racemic) [medetomidine, (±)-4-[1-(2,3-dimethylphenyl)ethyl)-1H-imidazole] | – | – | – | – | – | – | – | 1 to 10 nM |
| C=CCOC(=O)n1cnc(C(C)c2cccc(C)c2C)c1 (stereo not drawn) [Compound M3, prop-2-en-1-yl 4-[1-(2,3-dimethylphenyl)ethyl]-1H-imidazole-1-carboxylate] | – | – | – | – | – | mixture of medetomidine and the starting material | only medetomidine | – |
| C=CCNC(=O)n1cnc(C(C)c2cccc(C)c2C)c1 (stereo not drawn) [Compound M4, 4-[1-(2,3-dimethylphenyl)ethyl]-N-(prop-2-en-1-yl)-1H-imidazole-1-carboxamide] | 5028.9 ng/mL | 5592.2 ng/mL | 5078.0 ng/mL | – | ~5000 ng/mL | stable | decomposition to medetomidine as well as non-hydrolyzed M4 | – |
| Cc1cccc(C(C)c2cn(S(C)(=O)=O)cn2)c1C (stereo not drawn) [Compound M0, 4-[1-(2,3-dimethylphenyl)ethyl]-1-(methanesulfonyl)-1H-imidazole] | – | – | – | – | – | stable | stable | – |
